Source: patent publication US20230357162A1, “COMPOUNDS, COMPOSITIONS AND METHODS” (Denali Therapeutics Inc., priority 2020, published 2023)

Test system: IL-1β secretion, THP-1 cells
Test: IL-1β secretion assay in PMA-differentiated THP-1 cells stimulated with LPS and nigericin (ELISA readout)
Format: cell-based
Conditions: Homo sapiens, THP-1, inhibition of IL-1β secretion, 25 ng/mL LPS then nigericin
Method: Compounds as provided herein were tested in the following assay. Cell culture medium employed contained RPMI 1640 medium (89%), FBS (10%), Pen/Strep (1%), and 2-mercaptoethanol (0.05 mM). Freezing medium was made up of 90% FBS and 10% DMSO. THP-1 cells were removed from the liquid nitrogen and placed into a 37° C. water bath to thaw, until signs of ice dissipated. The cells were then added to 9 mL of warm cell culture medium and centrifuged for 5 minutes at 1000 rpm. The supernatant was discarded, and the cells were resuspended in new cell culture medium. THP-1 cells were then split and cultured in the cell culture medium, being passaged every 2-3 days with the cell density will be maintained between 5×10^5 and 1.5×10^6 viable cells/mL.
PMA was dissolved in DMSO to make a stock solution at 5 mg/ml and stored in 10 µl aliquots at -20° C. for single use. PMA is added to normal growth medium. LPS was diluted with 1 mL of water solution to provide a 1 mg/mL stock solution and stored in 15 µl aliquots at -20° C. for single use. Nigericin is diluted in ice cold 100% ethanol to 5 mg/ml (6.7 mM) and stored in 75 µL aliquots at -20° C. for single use. Serum-free media contains RPMI 1640 medium (99%), Pen/Strep (1%), and 2-mercaptoethanol (0.05 mM). The two control conditions used to qualify and normalize test compound dose-response curves were as follows: High Control = 25 ng/mL LPS, 5 µM Nigericin, 0.5% DMSO, Low Control = 25 ng/mL, LPS, 0.5% DMSO.
THP-1 cells were diluted to provide a suspension at a concentration of 1.0×10^6 cells/mL with the total volume of suspension required to enable the desired number of assay plates. The growth media was supplemented with PMA (5 ng/mL final concentration) and the cells were incubated at 37° C. under a humidified atmosphere of 5% CO2 for 40 h.
All media was carefully aspirated from each culture flask. The cells were washed carefully with 1x DPBS. The cells were then briefly digested with trypsin LE for 5 minutes at 23° C. and immediately resuspended in cell growth media. After resuspension, the cells were centrifuged at 1000 rpm for 3 minutes and the supernatant was discarded. The cells were resuspended in DPBS and once again centrifuged at 1000 rpm for 5 minutes. The supernatant was discarded and the cell pellet was resuspended in serum-free media supplemented with LPS (25 ng/mL final concentration) to enable the distribution of 30 K THP-1 cells within 45 µL of media into each well of 384-well PDL-coated plates. The 384-well plates were then incubated at 37° C. under a humidified atmosphere of 5% CO2 for 2 h. Following this period, test compounds were dispensed by Tecan across the desired concentration range with all wells normalized to a final 0.5 % DMSO concentration. The plates were then then incubated at 37° C. under a humidified atmosphere of 5% CO2 for 1 h. Following this period, 5 µL of the […] nigericin stock solution was added to each of the appropriate wells and plates were centrifuged at 1000 rpm for 30 seconds. The plates were the immediately reintroduced to the incubator at 37° C. under a humidified atmosphere of 5% CO2 for 2 h. After this time, 35 µL/well of supernatant was collected and transferred into v-bottom plate and centrifuged at 1000 rpm for 1 minute. These supernatant aliquots were analyzed using an IL-Iβ detection kit as described below. If needed, the test samples could be snap frozen and stored at -80° C. until analyzed.
To prepare each ELISA plate, capture antibody (mAb Mt175) was diluted with PBS to a final concentration of 2 µg/mL and then 20 µL of this solution was added to each well of the ELISA plate. Each plate was allowed to incubate overnight at 4° C. The next day, the capture antibody solution was removed and discarded. Each ELISA plate was washed 4 times with PBST followed by the addition of 25 µL/well of blocking buffer (Licor-927-40010) supplemented with 0.1% Tween 20. Each ELISA plate was then allowed to incubate for 1 hour at 23° C. […]

| SMILES | IC50 (class column of Table 3) [µM] | IC50 (numeric column of Table 3) [µM] |
| --- | --- | --- |
| CC(C)c1nn(CC(=O)Nc2c(F)cnn2C)c(=O)c2ccc(Br)cc12 [Example 50, 2-(6-bromo-1-oxo-4-propan-2-ylphthalazin-2-yl)-N-(4-fluoro-2-methylpyrazol-3-yl)acetamide] | > 15 | 27.5 |
| CC(C)c1nn(CC(=O)Nc2ccnc(C3CC3)n2)c(=O)c2ccc(Br)cc12 [Example 51, 2-(6-bromo-1-oxo-4-propan-2-ylphthalazin-2-yl)-N-(2-cyclopropylpyrimidin-4-yl)acetamide] | < 10 | 0.863 |
| CC(C)c1nn(CC(=O)NC2CCOC2)c(=O)c2ccc(Br)cc12 (centres unmarked) [Example 52, 2-(6-bromo-1-oxo-4-propan-2-ylphthalazin-2-yl)-N-(oxolan-3-yl)acetamide] | < 10 | 2.53 |
| CC(C)c1nn(CC(=O)NC2CCOCC2)c(=O)c2ccc(Br)cc12 [Example 53, 2-(6-bromo-1-oxo-4-propan-2-ylphthalazin-2-yl)-N-(oxan-4-yl)acetamide] | < 10 | 1.13 |
| CC(C)c1nn(CC(=O)NC2CC3(COC3)C2)c(=O)c2ccc(Br)cc12 [Example 54, 2-(6-bromo-1-oxo-4-propan-2-ylphthalazin-2-yl)-N-(2-oxaspiro[3.3]heptan-6-yl)acetamide] | < 10 | 0.349 |
| CC(C)c1nn(CC(=O)Nc2cccnc2)c(=O)c2ccc(Br)cc12 [Example 55, 2-(6-bromo-1-oxo-4-propan-2-ylphthalazin-2-yl)-N-pyridin-3-ylacetamide] | < 10 | 0.71 |
| CC(C)c1nn(CC(=O)Nc2cncnc2)c(=O)c2ccc(Br)cc12 [Example 56, 2-(6-bromo-1-oxo-4-propan-2-ylphthalazin-2-yl)-N-pyrimidin-5-ylacetamide] | < 10 | 3.23 |
| CC(C)c1nn(CC(=O)NCC2CCCOC2)c(=O)c2ccc(Br)cc12 (centres unmarked) [Example 57, 2-(6-bromo-1-oxo-4-propan-2-ylphthalazin-2-yl)-N-(oxan-3-ylmethyl)acetamide] | < 10 | 4.4 |
| CC(C)c1nn(CC(=O)NCC2COCCN2C)c(=O)c2ccc(Br)cc12 (centres unmarked) [Example 58, 2-(6-bromo-1-oxo-4-propan-2-ylphthalazin-2-yl)-N-[(4-methylmorpholin-3-yl)methyl]acetamide] | < 10 | 3.99 |
| CC(C)c1nn(CC(=O)Nc2ccc(C#N)cc2F)c(=O)c2ccc(Br)cc12 [Example 59, 2-(6-bromo-1-oxo-4-propan-2-ylphthalazin-2-yl)-N-(4-cyano-2-fluorophenyl)acetamide] | < 10 | 0.457 |
| CC(C)c1nn(CC(=O)NC2CCOC(C)(C)C2)c(=O)c2ccc(Br)cc12 (centres unmarked) [Example 60, 2-(6-bromo-1-oxo-4-propan-2-ylphthalazin-2-yl)-N-(2,2-dimethyloxan-4-yl)acetamide] | < 10 | 1.41 |
| CC(C)c1nn(CC(=O)Nc2ccc3cnn(C)c3c2)c(=O)c2ccc(Br)cc12 [Example 61, 2-(6-bromo-1-oxo-4-propan-2-ylphthalazin-2-yl)-N-(1-methylindazol-6-yl)acetamide] | < 10 | 0.943 |
| CC(C)c1nn(CC(=O)Nc2nn(C)cc2F)c(=O)c2ccc(Br)cc12 [Example 62, 2-(6-bromo-1-oxo-4-propan-2-ylphthalazin-2-yl)-N-(4-fluoro-1-methylpyrazol-3-yl)acetamide] | 10 to 15 | 10.3 |
| Cc1cnn(C)c1NC(=O)Cn1nc(C(C)C)c2cc(Br)ccc2c1=O [Example 63, 2-(6-bromo-1-oxo-4-propan-2-ylphthalazin-2-yl)-N-(2,4-dimethylpyrazol-3-yl)acetamide] | 10 to 15 | 12.8 |
| Cc1cc(NC(=O)Cn2nc(C(C)C)c3cc(Br)ccc3c2=O)n(C)n1 [Example 64, 2-(6-bromo-1-oxo-4-propan-2-ylphthalazin-2-yl)-N-(2,5-dimethylpyrazol-3-yl)acetamide] | < 10 | 0.392 |
| CC(C)c1nn(CC(=O)NCC2CN(C)CCO2)c(=O)c2ccc(Br)cc12 (centres unmarked) [Example 65, 2-(6-bromo-1-oxo-4-propan-2-ylphthalazin-2-yl)-N-[(4-methylmorpholin-2-yl)methyl]acetamide] | > 15 | 22.7 |
| CC(C)c1nn(CC(=O)NC2CCC(=O)N(C)C2)c(=O)c2ccc(Br)cc12 (centres unmarked) [Example 66, 2-(6-bromo-1-oxo-4-propan-2-ylphthalazin-2-yl)-N-(1-methyl-6-oxopiperidin-3-yl)acetamide] | < 10 | 2.44 |
| CC(C)c1nn(CC(=O)Nc2ccnn2C2COC2)c(=O)c2ccc(Br)cc12 [Example 67, 2-(6-bromo-1-oxo-4-propan-2-ylphthalazin-2-yl)-N-[2-(oxetan-3-yl)pyrazol-3-yl]acetamide] | < 10 | 1.03 |
| CC(C)c1nn(CC(=O)Nc2ncc(Cl)cc2F)c(=O)c2ccc(Br)cc12 [Example 68, 2-(6-bromo-1-oxo-4-propan-2-ylphthalazin-2-yl)-N-(5-chloro-3-fluoropyridin-2-yl)acetamide] | < 10 | 0.11 |
| CC(C)c1nn(CC(=O)Nc2ccn(C)n2)c(=O)c2ccc(Br)cc12 [Example 69, 2-(6-bromo-1-oxo-4-propan-2-ylphthalazin-2-yl)-N-(1-methylpyrazol-3-yl)acetamide] | < 10 | 1.71 |
| CC(C)c1nn(CC(=O)Nc2cccnn2)c(=O)c2ccc(Br)cc12 [Example 70, 2-(6-bromo-1-oxo-4-propan-2-ylphthalazin-2-yl)-N-pyridazin-3-ylacetamide] | < 10 | 0.952 |
| CC(C)c1nn(CC(=O)Nc2cnccn2)c(=O)c2ccc(Br)cc12 [Example 71, 2-(6-bromo-1-oxo-4-propan-2-ylphthalazin-2-yl)-N-pyrazin-2-ylacetamide] | < 10 | 0.499 |
| CC(C)c1nn(CC(=O)NC(C)c2ccccc2)c(=O)c2ccc(Br)cc12 (centres unmarked) [Example 72, 2-(6-bromo-1-oxo-4-propan-2-ylphthalazin-2-yl)-N-(1-phenylethyl)acetamide] | < 10 | 9.04 |
| CC(C)c1nn(CC(=O)N2CCCc3ccccc32)c(=O)c2ccc(Br)cc12 [Example 73, 6-bromo-2-[2-(3,4-dihydro-2H-quinolin-1-yl)-2-oxoethyl]-4-propan-2-ylphthalazin-1-one] | < 10 | 9.63 |
| CC(C)c1nn(CC(=O)NCC2CCOCC2)c(=O)c2ccc(Br)cc12 [Example 74, 2-(6-bromo-1-oxo-4-propan-2-ylphthalazin-2-yl)-N-(oxan-4-ylmethyl)acetamide] | < 10 | 3.74 |
| CC(C)c1nn(CC(=O)NCC2CCOC2)c(=O)c2ccc(Br)cc12 (centres unmarked) [Example 75, 2-(6-bromo-1-oxo-4-propan-2-ylphthalazin-2-yl)-N-(oxolan-3-ylmethyl)acetamide] | < 10 | 2.85 |
| CC(C)c1nn(CC(=O)NC(C)C2CCC2)c(=O)c2ccc(Br)cc12 (centres unmarked) [Example 76, 2-(6-bromo-1-oxo-4-propan-2-ylphthalazin-2-yl)-N-(1-cyclobutylethyl)acetamide] | < 10 | 8.06 |
| CO[C@H]1C[C@@H](NC(=O)Cn2nc(C(C)C)c3cc(Br)ccc3c2=O)C1 [Example 77, 2-(6-bromo-1-oxo-4-propan-2-ylphthalazin-2-yl)-N-(3-cis-methoxycyclobutyl)acet amide] | < 10 | 3.85 |
